One test concerns Non-Small Lung Cancer Cells (NSLCs). In words: Cancer migration (wound healing) assay. The test is classed as cell-based. Conditions: wound healing assay, dose-response curve; read-out: Anti-Cancer Activity (Inhibition of Cancer Cell Migration) IC50. An excerpt: The ability of 1,2,3-triazole derivatives according to the disclosure to inhibit cancer cell migration and proliferation in vitro can be measured, e.g., by a wound healing assay (Rodriguez et al., in Cell Migration: Developmental Methods and Protocols, Web et al., Guan ed. Humana Press 294, 23-29). This assay is based on the observation that, upon the creation of an artificial gap on a confluent cancer cell monolayer, the cells on the edge of the created gap will start migrating and proliferating until new cell-cell contacts are established (EXAMPLE 3).
Non-Small Lung Cancer Cells (NSLCs) migration rate was assessed in an in vitro wound healing assay. This assay is based on the observation that, upon the creation of an artificial gap on a confluent cell monolayer, the cells on the edge of the created gap will start migrating and proliferating until new cell-cell contacts are established.
A confluent cell layer is a prerequisite for starting this assay. Gap formation is done manually with a scrapper and cell proliferation and migration is determined recording a time-lapse video for 20 hr. with a time interval of 30 min. The microscopic pictures are manually analyzed for obtaining information about the proliferation and migration characteristics of the cultured cells and the image analysis detects the cell covered area.
NSLCs were cultured in Eagle's Minimum Essential Medium (ATCC-formulated medium, Catalog No. 30-2003) containing fetal bovine serum at 10% during several periods. Wound healing assays with supplemented medium containing 1,2,3-triazole derivatives were performed to evaluate the inhibitory effect on proliferation and migration of cancer cells.
In order to simulate as close as possible the in vivo cancer microenvironment, human plasma and calcium were added to the cell culture system to provide the hemostatic factors normally present in the cancer stroma. The previous day, cells were seeded with 10% FBS at a number that would provide 90% confluence the next day. On Day 0, a scratch (“a wound”) was performed in the middle of the well and the 10% FBS medium was replaced with 20% plasma, 20 mM calcium medium, with or without Derivative 1. 10% FBS medium was used as control in these experiments. “Wound healing” or closure of the scratch was assessed over a period of 4 days, and cell number in the wound area was quantified for each condition. Increasing amount of Derivative 1 (LTI6) was used to attain a dose-response curve.
The cell function effect of Derivative 1 was compared with Tranexamic Acid (TNA) and Caproic Acid (CA), commercially available and widely used anti-metastasis drugs.
In the case of `NCCCn1cc(C(=O)NN)nn1` [Derivative 4], the IC50 is 1200 µM.
On the same count and under the same terms, to `O=c1[nH]c(-c2cn(C3CCNCC3)nn2)no1` [compound 9, 3-(1-(piperidin-4-yl)-1H-1,2,3-triazol-4-yl)-1,2,4-oxadiazol-5(4H)-one] belongs 820 µM.
Still for that read-out and setting: to `NCCn1cc(/C(N)=N/O)nn1` [Derivative 26] belongs 258 µM.
`NC1CCC(n2cc(-c3noc(=O)[nH]3)nn2)CC1` (stereo not drawn) [Derivative 19]: the IC50 was 610 µM.
Consider `NC1CCC(n2cc(-c3nnc(C(=O)O)o3)nn2)CC1` (stereo not drawn) [Derivative 23], for which the IC50 was found to be 89 µM.
On the same count and under the same terms, to `NCCn1cc(-c2noc(=O)[nH]2)nn1` [Derivative 20] belongs 87 µM.
Same read-out and setting: the result for `NCCn1cc(C(=O)NN)nn1` [Derivative 15] reads 104 µM; that for `NC1CCC(n2cc(-c3n[nH]c(=O)o3)nn2)CC1` (stereo not drawn) [Derivative 17], 650 µM; that for `NNC(=O)c1cn(C2CCC(N)CC2)nn1` (stereo not drawn) [Derivative 16], 250 µM.
The same measure, in the same setting: to `N/C(Cc1cn(C2CCC(N)CC2)nn1)=N/O` (stereo not drawn) [Derivative 27] belongs 310 µM; to `N=C(N)c1cn(C2CCNCC2)nn1` [Derivative 33], 82 µM.

A further test has as its system fibrinolysis mediated by tPA (plasminogen activation by tPA). The test is described as follows: Fibrinolytic assay: one-step spectrophotometric clot lysis in human plasma. The test is classed as biochemical. As to conditions: concentration at which 50% of total fibrinolysis mediated by tPA is inhibited; human ACD plasma, clot triggered by TF, absorbance 340 nm; read-out: Anti-fibrinolytic (SERPIN) Activity IC50. Here is the method:
Fibrinolytic activity in human plasma was determined by a one-step spectrophotometric method (Gidron et al. (1978) J. Clin. Pathol. 31(1):54-57) with minor modifications (see EXAMPLE 2). In this method, fibrin clot formation in anticoagulant citrate dextrose (ACD) plasma samples obtained from healthy volunteers is triggered by tissue factor (TF) and can be quantified by spectrometry as a significant increase in basal plasma absorbance at 340 nm.
As shown in FIGS. 2A-2D, in the absence of tPA, plasma absorbance remains permanently elevated.
Fibrinolytic activity in human plasmas in the presence of derivatives according to the disclosure was determined by a one-step spectrophotometric method.
Fibrin clot formation in the anticoagulant acid citrate dextrose (ACD)-treated plasma obtained from healthy volunteers is triggered by tissue factor (TF) (Thromborel S, Siemens Healthineers) and quantifies by spectrophotometry at 340 nm (using a Molecular Devices SpectraMax® M2e Multimode Microplate Reader). When recombinant human Tissue Plasminogen Activator (tPA, final concentration of 5.2 μg/ml) is simultaneously added, fibrinolysis of the clot can be determined.
Fresh blood was extracted from healthy volunteers. ACD, to reach a 10% concentration, was instantly added to the extracted blood, to prevent any unwanted coagulation. After that, blood was centrifuged for 15 min at 1,000 g. Plasma was clearly separated from red blood cells. 3 mL aliquots of aspirated plasma were immediately frozen at −20° C.
4 mL of ddH2O was added to a vial of Thromborel S and mixed thoroughly for 2 min. and left at 4° C. 500 μL TF aliquots were used for each experiment.
Representative derivatives of the present disclosure (Nos. 1, 5, and 7) were diluted in DMSO (those with Boc) or ddH2O (those with HCl) to a final concentration of 10 mM. A solution containing 1 M Tris HCl, pH 7.5 (Fisher BioReagent) (Buffer A), 0.110 g of CaCl2) in 10 mL of ddH2O (Buffer B), and tPA (Abcam, 1.3 mg/mL added into the diluted derivative solution, final concentration in serum was 5.2 μg/mL), and the derivative was prepared in a total volume of 75 μL and added to untreated, flat, clear Costar® 96-well plates in triplicate. Absorbance at 340 nm at 37° C. for 30 min was recorded every 15 sec. The plates were shaken every 3 sec in between readings. Controls for basal plasma absorbance, basal coagulation absorbance and basal fibrinolytic activity absorbance were performed in every assay.
FIG. 2A show the results a control experiment displaying the ability of TF to cause fibrin clot formation in the absence and presence of t-PA. TF was able to cause fibrin clot formation evaluated as a significant increase of the basal plasma absorbance at 340 nm.
Take `NCCCn1cc(C(=O)NN)nn1` [Derivative 4]: the IC50 came to 800 µM.
Same read-out and setting: the result for `O=c1[nH]c(-c2cn(C3CCNCC3)nn2)no1` [compound 9, 3-(1-(piperidin-4-yl)-1H-1,2,3-triazol-4-yl)-1,2,4-oxadiazol-5(4H)-one] reads 500 µM.
Still for that read-out and setting: to `NCCn1cc(/C(N)=N/O)nn1` [Derivative 26] belongs 153 µM; to `NC1CCC(n2cc(-c3noc(=O)[nH]3)nn2)CC1` (stereo not drawn) [Derivative 19], 375 µM.
Turning to `NC1CCC(n2cc(-c3nnc(C(=O)O)o3)nn2)CC1` (stereo not drawn) [Derivative 23], the IC50 was determined as 35 µM.
On the same count and under the same terms, to `NCCn1cc(-c2noc(=O)[nH]2)nn1` [Derivative 20] belongs 15 µM; to `NCCn1cc(C(=O)NN)nn1` [Derivative 15], 24 µM; to `NC1CCC(n2cc(-c3n[nH]c(=O)o3)nn2)CC1` (stereo not drawn) [Derivative 17], 320 µM.
The same measure, in the same setting: the result for `NNC(=O)c1cn(C2CCC(N)CC2)nn1` (stereo not drawn) [Derivative 16] reads 58 µM.
Same read-out and setting: to `N/C(Cc1cn(C2CCC(N)CC2)nn1)=N/O` (stereo not drawn) [Derivative 27] belongs 189 µM; to `N=C(N)c1cn(C2CCNCC2)nn1` [Derivative 33], 29 µM.

The test system of the next test is Non-Small Lung Cancer Cells (NSLCs). The test is described as follows: Trypan Blue Exclusion Test of cancer cell viability. The format is cell-based. Conditions: defined in text as concentration of derivative causing greater than 90% of the cells to die; read-out: Anti-Cancer Activity (Trypan Blue Exclusion Assay) IC50. Here is the method: The ability of 1,2,3-triazole derivatives according to the disclosure to kill cancer cells can be measured, e.g., by Trypan Blue Exclusion Assay which measured cell death by starvation due to the presence of the derivative (see EXAMPLE 4). The results obtained using this assay with some representative 1,2,3-triazole derivatives according to the disclosure are shown below in Table 4.
The effect of Derivative 1 on cancer cell viability was determined using the Trypan Blue Exclusion Test (Stober (2001) (Curr. Protoc. Immunol., May; Appendix 3:Appendix 3B. doi: 10.1002/0471142735.ima03bs21). The viability of Non-Small Lung Cancer Cells (NSLCs) was assessed over a period of 15 days after the promotion of coagulation with or without 200 μM of 1,2,3-triazole derivative 1 and with or without 2% human plasma. Fresh 2% FBS medium corresponding to each condition was added every 3 days. Cell death was analyzed using Trypan blue staining. 2% FBS medium was used as control. Some representative results are shown in FIGS. 4A-4F.
Turning to `NCCCn1cc(C(=O)NN)nn1` [Derivative 4], the IC50 amounted to 2100 µM.
The same measure, in the same setting: the result for `O=c1[nH]c(-c2cn(C3CCNCC3)nn2)no1` [compound 9, 3-(1-(piperidin-4-yl)-1H-1,2,3-triazol-4-yl)-1,2,4-oxadiazol-5(4H)-one] reads 1100 µM; that for `NCCn1cc(/C(N)=N/O)nn1` [Derivative 26], 470 µM; that for `NC1CCC(n2cc(-c3noc(=O)[nH]3)nn2)CC1` (stereo not drawn) [Derivative 19], 880 µM.
The same measure, in the same setting: to `NC1CCC(n2cc(-c3nnc(C(=O)O)o3)nn2)CC1` (stereo not drawn) [Derivative 23] belongs 210 µM; to `NCCn1cc(-c2noc(=O)[nH]2)nn1` [Derivative 20], 210 µM; to `NCCn1cc(C(=O)NN)nn1` [Derivative 15], 815 µM.
Still for that read-out and setting: to `NC1CCC(n2cc(-c3n[nH]c(=O)o3)nn2)CC1` (stereo not drawn) [Derivative 17] belongs 1350 µM; to `NNC(=O)c1cn(C2CCC(N)CC2)nn1` (stereo not drawn) [Derivative 16], 430 µM; to `N/C(Cc1cn(C2CCC(N)CC2)nn1)=N/O` (stereo not drawn) [Derivative 27], 480 µM.
Regarding `N=C(N)c1cn(C2CCNCC2)nn1` [Derivative 33], the IC50 is 184 µM.

These data come from patent US20210317113A1, “1,2,3-TRIAZOLE DERIVATIVES AND USES THEREOF” (Alxerion Biotech LLC, priority 2020, published 2021).
